From US10412963B2, “Agricultural and horticultural fungicide composition and plant disease controlling method” (SDS BIOTECH K.K., priority 2016, dated 2019)

Experiments:
[1] = system: cucumber powdery mildew; assay: Effect test on cucumber powdery mildew (potted cucumbers, spray); type: in vivo; conditions: 10 days after inoculation
Description: A sufficient amount of a dilute solution of each wettable powder prepared in Formulation Example 1 was spread with a spray gun on cucumbers (variety: Hikari No. 3 P-type) that had been grown in a greenhouse to the third-leaf unfolding stage in a plastic pot having a diameter of 6 cm. The next day, the cucumbers were inoculated with a suspension of cucumber powdery mildew spores by misting. The cucumbers were allowed to stand in the greenhouse for 10 days, and diseased area ratios in the first leaf and the second leaf (first and second leaves from the ground) were investigated with eyes to determine a preventive value. The preventive value (%) was calculated using the following equation. Preventive value=(1−(ratio of infection zone in leaf with test compound/ratio of infection zone in control leaf))×100

[2] = system: Botrytis cinerea; assay: Effect test on cucumber gray mold (cucumber cotyledons, paper disc); type: in vivo; conditions: 20° C., 4 days
Protocol: Cotyledons were harvested from cucumbers (variety: Hikari No. 3 P-type) that had been grown in a greenhouse for 3 weeks in a plastic pot having a diameter of 6 cm. The harvested cotyledons were placed side by side in a Tupperware container in which wetted filter paper was laid, and a paper disc having a diameter of 8 mm was placed on the center of each of the cotyledons. To each paper disc, 50 μL of a suspension of Botrytis cinerea spores (2×10^4/ml, containing 2% of sucrose and 0.2% of a yeast extract) was added, and at the same time, 50 μL of a phosphate buffer (40 mM, pH 7.2) having dissolved therein each wettable powder prepared in Formulation Example 1 at a target concentration was added. A lid was placed on the Tupperware container, which was kept at 20° C. for 4 days. After that, diseased areas were investigated with eyes to determine a preventive value. The preventive value (%) was calculated using the following equation. Preventive value=(1−(diameter of infection zone in leaf with test compound/diameter of infection zone in control leaf))×100

| Molecule | Preventive value (%) ([1]; single chemical 1 ppm) | Preventive value (%) ([1]; single chemical 10 ppm) | Preventive value (%) ([2]; single chemical 1 ppm) | Preventive value (%) ([2]; single chemical 10 ppm) | Preventive value (%) ([1]; single chemical 0.5 ppm) | Preventive value (%) ([1]; single chemical 2 ppm) | Preventive value (%) ([1]; single chemical 5 ppm) | Preventive value (%) ([2]; single chemical 0.5 ppm) | Preventive value (%) ([2]; single chemical 2 ppm) | Preventive value (%) ([2]; single chemical 5 ppm) |
| --- | --- | --- | --- | --- | --- | --- | --- | --- | --- | --- |
| iso-C14 [Ile^7]surfactin | 0 | 0 | 0 | 0 | – | – | – | – | – | – |
| C[C@@H](N)C(=O)N[C@H]1COC(O)[C@H](N)[C@H]1O (stereo partly drawn) [Prumycin, 4-N-D-alanyl-2,4-diamino-2,4-dideoxyarabinose] | 21 | 95 | 45 | 100 | 7 | 44 | 69 | 6 | 55 | 95 |
| surfactin | 0 | 0 | 0 | 0 | – | – | – | – | – | – |
